Data from ChEMBL document CHEMBL3997763 (Medchemcomm, 2016).
Activity calls are given as the source filed them. The calls are words filed in the database; no cut-off is given here.

What was measured:
[1] = target: T1, 3-hydroxy-3-methylglutaryl-coenzyme A reductase (Homo sapiens) (UniProt P04035); test: Inhibition of human HMG-CoA reductase catalytic domain at 5 uM using HMG-CoA as substrate in presence of NADPH by colorimetric method relative to control
T1 sequence (whole entry): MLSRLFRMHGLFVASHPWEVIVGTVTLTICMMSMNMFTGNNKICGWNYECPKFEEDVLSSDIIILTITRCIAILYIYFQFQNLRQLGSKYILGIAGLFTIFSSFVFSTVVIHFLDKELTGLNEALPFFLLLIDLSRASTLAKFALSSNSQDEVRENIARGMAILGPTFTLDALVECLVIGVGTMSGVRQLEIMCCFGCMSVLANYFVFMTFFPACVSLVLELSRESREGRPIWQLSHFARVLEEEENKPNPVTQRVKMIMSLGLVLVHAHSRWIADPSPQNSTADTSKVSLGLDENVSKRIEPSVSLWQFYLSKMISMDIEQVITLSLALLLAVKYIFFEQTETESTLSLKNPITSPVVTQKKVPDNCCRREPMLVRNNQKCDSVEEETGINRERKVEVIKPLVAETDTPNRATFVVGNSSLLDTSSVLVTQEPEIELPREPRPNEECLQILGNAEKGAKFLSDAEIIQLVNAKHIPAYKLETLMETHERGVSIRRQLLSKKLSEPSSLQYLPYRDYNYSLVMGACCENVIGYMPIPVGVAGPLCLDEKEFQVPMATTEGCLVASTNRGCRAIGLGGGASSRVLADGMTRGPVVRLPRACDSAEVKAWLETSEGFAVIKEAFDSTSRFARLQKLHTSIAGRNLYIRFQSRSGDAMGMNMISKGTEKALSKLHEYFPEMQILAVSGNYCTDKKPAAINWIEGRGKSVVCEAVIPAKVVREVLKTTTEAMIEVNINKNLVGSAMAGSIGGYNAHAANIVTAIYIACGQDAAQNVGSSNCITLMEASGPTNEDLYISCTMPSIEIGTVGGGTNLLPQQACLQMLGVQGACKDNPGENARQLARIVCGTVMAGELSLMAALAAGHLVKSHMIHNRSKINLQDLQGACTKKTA

[2] = Cmax in Sprague-Dawley rat at 100 mg/kg, po administered as single dose by LC-MS/MS analysis; type: ADME, organism-based; set-up: dose 100 mg/kg, route oral; details: in vivo
Rattus norvegicus [3] = test: Antihyperlipidemic activity in triton WR-1339 induced Charles Foster rat hyperlipidemia model assessed as inhibition of phospholipid level in serum at 150 mg/kg, po administered simultaneously with triton WR-1339 after 18 hrs by enzymatic method relative to control; type: functional
Rattus norvegicus [4] = test: Hypolipidemic activity in HFD-induced Charles Foster rat assessed as increase in LCAT activity at 100 mg/kg administered as single dose via oral gavage for 30 days simultaneously with high fat diet by photometric method; type: functional, organism-based
Rattus norvegicus [5] = test: Increase in phospholipid level in serum of triton WR-1339 induced Charles Foster rat hyperlipidemia model at 50 mg/kg, po administered simultaneously with triton WR-1339 after 18 hrs by enzymatic method relative to control; type: functional
Rattus norvegicus [6] = test: Hypolipidemic activity in HFD-induced Charles Foster rat chronic hyperlipidemia model assessed as reduction in serum AST level at 100 mg/kg administered via oral gavage for 30 days simultaneously with high fat diet by colorimetric method relative to HFD treated vehicle; type: functional; details: 720 h
Rattus norvegicus [7] = test: Antihyperlipidemic activity in HFD-induced Charles Foster rat chronic hyperlipidemia model assessed as body weight at 100 mg/kg administered via oral gavage for 30 days simultaneously with high fat diet (reference value: 263.52 +/- 21.56 g); type: functional
Rattus norvegicus [8] = test: Hypolipidemic activity in HFD-induced Charles Foster rat assessed as increase in serum HDL-TC at 100 mg/kg administered as single dose via oral gavage for 30 days simultaneously with high fat diet; type: functional, organism-based
Albumin = Albumin (Bos taurus, UniProt P02769); test: Binding affinity to bovine serum albumin by fluorescence quenching method; type: ADME; details: cattle, isolated protein
Sequence of Albumin (P02769 whole entry): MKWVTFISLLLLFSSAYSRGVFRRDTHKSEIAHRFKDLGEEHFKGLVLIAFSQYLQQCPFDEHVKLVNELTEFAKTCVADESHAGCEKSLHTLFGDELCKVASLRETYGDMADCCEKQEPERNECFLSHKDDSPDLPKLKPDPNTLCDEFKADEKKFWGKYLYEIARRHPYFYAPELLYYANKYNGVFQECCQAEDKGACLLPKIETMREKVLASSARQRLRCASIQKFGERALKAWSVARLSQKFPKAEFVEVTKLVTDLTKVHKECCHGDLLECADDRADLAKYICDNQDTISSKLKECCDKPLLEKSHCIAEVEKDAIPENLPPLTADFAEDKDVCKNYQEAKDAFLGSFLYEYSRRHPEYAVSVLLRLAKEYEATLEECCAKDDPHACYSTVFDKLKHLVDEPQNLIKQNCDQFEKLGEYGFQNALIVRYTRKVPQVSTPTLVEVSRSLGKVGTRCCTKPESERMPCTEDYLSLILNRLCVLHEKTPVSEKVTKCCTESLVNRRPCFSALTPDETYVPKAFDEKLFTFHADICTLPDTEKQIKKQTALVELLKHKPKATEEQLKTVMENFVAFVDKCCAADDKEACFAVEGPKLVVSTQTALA

Rattus norvegicus [9] = test: Hypolipidemic activity in HFD-induced Charles Foster rat assessed as increase in serum HDL-TG at 100 mg/kg administered as single dose via oral gavage for 30 days simultaneously with high fat diet; type: functional, organism-based
[10] = target: T1, 3-hydroxy-3-methylglutaryl-coenzyme A reductase (Homo sapiens); test: Inhibition of human HMG-CoA reductase catalytic domain at 10 uM using HMG-CoA as substrate in presence of NADPH by colorimetric method relative to control
Rattus norvegicus [11] = test: Hypolipidemic activity in HFD-induced Charles Foster rat assessed as reduction in serum VLDL-TG at 100 mg/kg administered as single dose via oral gavage for 30 days simultaneously with high fat diet; type: functional, organism-based
Rattus norvegicus [12] = test: Antihyperlipidemic activity in triton WR-1339 induced Charles Foster rat hyperlipidemia model assessed as inhibition of triglyceride level in serum at 150 mg/kg, po administered simultaneously with triton WR-1339 after 18 hrs by enzymatic method relative to control; type: functional
[13] = Tmax in Sprague-Dawley rat at 100 mg/kg, po administered as single dose by LC-MS/MS analysis; type: ADME, organism-based; details: in vivo
Rattus norvegicus [14] = species: Rattus norvegicus; test: animal or person; type: functional; details: Charles Foster, po, 18 h
Description: Antihyperlipidemic activity in triton WR-1339 induced Charles Foster rat hyperlipidemia model assessed as inhibition of triglyceride level in serum at 100 mg/kg, po administered simultaneously with triton WR-1339 after 18 hrs by enzymatic method relative to control

[15] = Stability of the compound in simulated gastric fluid at 10 uM up to 60 mins by LC-MS/MS analysis
Rattus norvegicus [16] = test: Hypolipidemic activity in HFD-induced Charles Foster rat chronic hyperlipidemia model assessed as increase in fecal excretion of cholic acid at 100 mg/kg administered via oral gavage for 30 days simultaneously with high fat diet by enzymatic method relative to HFD treated vehicle; type: functional
[17] = Apparent oral volume of distribution in Sprague-Dawley rat at 100 mg/kg administered as single dose by LC-MS/MS analysis; type: ADME, organism-based; details: in vivo
[18] = Stability of the compound in simulated intestinal fluid at 10 uM up to 120 mins by LC-MS/MS analysis
Rattus norvegicus [19] = test: Antihyperlipidemic activity in po dosed triton WR-1339 induced Charles Foster rat hyperlipidemia model assessed as inhibition of phospholipid level in serum administered simultaneously with triton WR-1339 after 18 hrs by enzymatic method relative to control; type: functional, organism-based
Rattus norvegicus [20] = test: Hypolipidemic activity in HFD-induced Charles Foster rat assessed as increase in human I125-LDL binding to rat liver plasma membrane at 100 mg/kg administered as single dose via oral gavage for 30 days simultaneously with high fat diet by minigamma counting; type: functional, organism-based
[21] = target: T1, 3-hydroxy-3-methylglutaryl-coenzyme A reductase (Homo sapiens); test: Inhibition of human HMG-CoA reductase catalytic domain at 50 uM using HMG-CoA as substrate in presence of NADPH by colorimetric method relative to control
Liver = test: Intrinsic clearance in Sprague-Dawley rat liver microsomes at 10 uM in absence of NADPH after 5 to 90 mins by LC-MS/MS analysis; type: ADME, microsome
[22] = target: T1, 3-hydroxy-3-methylglutaryl-coenzyme A reductase (Homo sapiens); test: Inhibition of human HMG-CoA reductase catalytic domain using HMG-CoA as substrate in presence of NADPH by colorimetric method
Rattus norvegicus [23] = test: Hypolipidemic activity in HFD-induced Charles Foster rat chronic hyperlipidemia model assessed as reduction in serum triglyceride level at 100 mg/kg administered via oral gavage for 30 days simultaneously with high fat diet by enzymatic method relative to HFD treated vehicle; type: functional; details: 720 h

For `COc1ccc(-c2cc3cc(C(c4c[nH]c5ccccc45)c4c[nH]c5ccccc45)cc(C(C)(C)C)c3oc2=O)cc1OC`, the inhibition [1] was 32%, the Cmax [2] was 79 ng/mL and the inhibition in vivo at 150 mg/kg (Rattus norvegicus [3]) was 35%. For the same compound, the Activity (Rattus norvegicus [4]) was “Active”, the Activity (Rattus norvegicus [5]) was 22% and the inhibition in vivo at 100 mg/kg (Rattus norvegicus [6]) was 28%. For the same compound, the Activity (Rattus norvegicus [7]) was 228.19 g, the Activity (Rattus norvegicus [8]) was “Active” and the Activity (Albumin) was “Active”. The Activity (Rattus norvegicus [9]) was “Active”, the inhibition [10] was 56% and the Activity (Rattus norvegicus [11]) was “Active”. For the same compound, the inhibition in vivo at 150 mg/kg (Rattus norvegicus [12]) was 33%, the Tmax [13] was 4 h and the inhibition in vivo at 100 mg/kg (Rattus norvegicus [14]) was 33%. The Stability [15] was “Stable”, the Activity (Rattus norvegicus [16]) was 31% and the Vd/F [17] was 684 L/kg. For the same compound, the Stability [18] was “Stable”, the inhibition (Rattus norvegicus [19]) was “Dose-dependent effect” and the Activity (Rattus norvegicus [20]) was “Active”. For the same compound, the inhibition [21] was 74%, the CLH (Liver) was 5.8 µL/min/mg and the inhibition [22] was “Dose-dependent effect”. For the same compound, the inhibition in vivo at 100 mg/kg (Rattus norvegicus [23]) was 26%.
